Tests used:
[1] = refractive index (Na D-line) (dimensionless); xn = mol fraction of the nth substance listed; conditions: 298.15 K, 100 kPa, Liquid, Standard Abbe refractometry
[2] = xn = mol fraction of the nth substance listed; conditions: 100 kPa, Liquid; for viscosity: Falling or rolling sphere viscometry; for mass density: Vibrating tube method; for electrical conductivity: Direct current cell with electrodes

CN(C)C(=[NH2+])N(C)C.c1c[n-]cn1 [1,1,3,3-tetramethylguanidinium imidazol-1-ide] + O
[1]
Conditions	refractive index
x1 = 0.0511	1.3973
x1 = 0.0991	1.4278
x1 = 0.207	1.4589
x1 = 0.3005	1.4722
x1 = 0.3834	1.4787
x1 = 0.4978	1.485
x1 = 0.6356	1.4889
x1 = 0.8019	1.4922
x1 = 0.8984	1.4923
x1 = 1	1.4943

[2]
Conditions	electrical conductivity [S/m]	mass density [kg/m3]	viscosity [mPa·s]
293.15 K, x1 = 0.0511	–	1023.04	3.157
293.15 K, x1 = 0.0991	–	1024.53	5.561
293.15 K, x1 = 0.207	–	1025.54	10.23
293.15 K, x1 = 0.3005	–	1019.92	14.29
293.15 K, x1 = 0.3834	–	1015.77	15.79
293.15 K, x1 = 0.4978	–	1010.24	16.03
293.15 K, x1 = 0.6356	–	1005.44	14.5
293.15 K, x1 = 0.8019	–	1001.45	12.12
293.15 K, x1 = 0.8984	–	999.17	10.19
293.15 K, x1 = 1	–	997.25	8.952
298.15 K, x1 = 0.002	1.524	–	–
298.15 K, x1 = 0.003	1.88	–	–
298.15 K, x1 = 0.0039	2.47	–	–
298.15 K, x1 = 0.005	2.88	–	–
298.15 K, x1 = 0.006	3.19	–	–
298.15 K, x1 = 0.008	3.36	–	–
298.15 K, x1 = 0.01	3.67	–	–
298.15 K, x1 = 0.0149	3.96	–	–
298.15 K, x1 = 0.0199	3.93	–	–
298.15 K, x1 = 0.0299	3.72	–	–
298.15 K, x1 = 0.0398	3.22	–	–
298.15 K, x1 = 0.0499	2.7	–	–
298.15 K, x1 = 0.0511	–	1019.97	2.519
298.15 K, x1 = 0.0599	2.31	–	–
298.15 K, x1 = 0.0699	1.97	–	–
298.15 K, x1 = 0.0799	1.711	–	–
298.15 K, x1 = 0.0893	1.517	–	–
298.15 K, x1 = 0.0991	–	1020.57	4.311
298.15 K, x1 = 0.0996	1.31	–	–
298.15 K, x1 = 0.1495	0.767	–	–
298.15 K, x1 = 0.1994	0.53	–	–
298.15 K, x1 = 0.207	–	1021.21	7.645
298.15 K, x1 = 0.3005	–	1015.51	11.07
298.15 K, x1 = 0.3504	0.272	–	–
298.15 K, x1 = 0.3834	–	1011.35	12.14
298.15 K, x1 = 0.4978	–	1005.81	12.35
298.15 K, x1 = 0.4989	0.215	–	–
298.15 K, x1 = 0.6356	–	1001	11.28
298.15 K, x1 = 0.6512	0.195	–	–
298.15 K, x1 = 0.8019	–	997.07	9.561
298.15 K, x1 = 0.8447	0.205	–	–
298.15 K, x1 = 0.8984	–	994.72	8.186
298.15 K, x1 = 1	0.218	992.8	7.287
303.15 K, x1 = 0.0511	–	1016.67	2.148
303.15 K, x1 = 0.0991	–	1016.58	3.601
303.15 K, x1 = 0.207	–	1016.83	6.045
303.15 K, x1 = 0.3005	–	1011.06	8.853
303.15 K, x1 = 0.3834	–	1006.9	9.629
303.15 K, x1 = 0.4978	–	1001.35	9.809
303.15 K, x1 = 0.6356	–	996.54	9.023
303.15 K, x1 = 0.8019	–	992.72	7.768
303.15 K, x1 = 0.8984	–	990.26	6.72
303.15 K, x1 = 1	–	988.35	6.044
308.15 K, x1 = 0.0511	–	1013.28	1.854
308.15 K, x1 = 0.0991	–	1012.53	3.021
308.15 K, x1 = 0.207	–	1012.42	4.956
308.15 K, x1 = 0.3005	–	1006.59	7.201
308.15 K, x1 = 0.3834	–	1002.43	7.806
308.15 K, x1 = 0.4978	–	996.88	7.952
308.15 K, x1 = 0.6356	–	992.07	7.354
308.15 K, x1 = 0.8019	–	988.36	6.42
308.15 K, x1 = 0.8984	–	985.81	5.611
308.15 K, x1 = 1	–	983.9	5.097
313.15 K, x1 = 0.0511	–	1009.78	1.617
313.15 K, x1 = 0.0991	–	1008.4	2.592
313.15 K, x1 = 0.207	–	1007.97	4.126
313.15 K, x1 = 0.3005	–	1002.09	5.934
313.15 K, x1 = 0.3834	–	997.94	6.428
313.15 K, x1 = 0.4978	–	992.4	6.542
313.15 K, x1 = 0.6356	–	987.61	6.07
313.15 K, x1 = 0.8019	–	983.97	5.363
313.15 K, x1 = 0.8984	–	981.34	4.756
313.15 K, x1 = 1	–	979.46	4.358
